Earlier results on one substance are cited in article PMC4747383, “Design of a peptidic inhibitor that targets the dimer interface of a prototypic galectin” (Oncotarget, 2015).

No end group written: not given here.

On the set-up of the data set: method as in PMID 22922050. To be noted: ref [51]; cited from earlier work.

As to “PACAP(28–38): an inactive fragment of the human Pituitary Adenylate Cyclase-Activating Polypeptide (PACAP) (GKRYKQRVKNK-NH2; ends and bridges not checked; UniProt P18509 159-169, looked up, fragment)”, the “binding of cell surface phospholipids” value was “binds cell surface phospholipids”.
